Results on 5 sequences are retold here after patent US7259146B2, “Neuroprotective peptides” (Ortho-McNeil Pharmaceutical, Inc., priority 2000, dated 2007).

For test [1], the system named is rat cerebral cortical cultures. Nature of the test: Neurite outgrowth assay (MAP2-FITC immunofluorescence), cortical cultures. Conditions: for dose-response profile: 10 fM-10 nM. The format is cell-based. The text has this: (§1) Dissociated hippocampal and cortical cell cultures were established from embryonic day 18 rat fetuses as previously described (Mattson et al., 1994). Briefly, fetuses were removed via cesarean section from pregnant moms (Sprague-Dawley) anesthetized with halothane according to the AVMA Panel on Euthanasia. Pups were decapitated and the brains were removed and placed in HEPES-buffered Hank's Balanced Salt solution (HBSS; Gibco). The hippocampi and cortices were dissected out and pooled according to tissue-type. Tissue was trypsinized for 15 min (1 mg/ml trypsin-HBSS; Worthington), rinsed with fresh HBSS, incubated in trypsin inhibitor (1 mg/ml; Sigma) for 5 min, rinsed again with fresh HBSS and then triturated in 1 ml fresh HBSS with a fire-polished glass pipette. Dissociated cells were seeded at 30,000 cells/well onto poly-D-lysine coated 96-well plates (Collaborative BioScience). Each well contained 100 μl of Eagle's Minimal Essential Media (MEM; Gibco) supplemented with 26 mM NaHCO3 (Sigma), 56 mM glucose (Sigma), 15 mM KCl (Sigma), 1 mM sodium pyruvate (Sigma), 1.1 mM L-glutamine (Sigma), 10% (v/v) heat-inactivated fetal bovine serum (Hyclone), and 0.001% gentamicin sulfate (Sigma) (pH 7.4). Cells were allowed to attach for 24 h in a humidified 37° C. 5% CO2 incubator before experimental treatment. The culture media was aspirated and exchanged with fresh media every three days.
(§2) Twenty-four hours after plating, cultures were treated with vehicle (PBS+0.1% BSA), 100 ng of various growth factors (brain derived neurotrophic factor (BDNF; Promega), glial-derived neurotrophic factor (GDNF; Promega), nerve growth factor (NGF; Boehringer Mannheim), basic fibroblast growth factor (bFGF; Boehringer Mannheim), insulin-like growth factor-1 (IGF-1; Boehringer Mannheim), neurotrophin-3 (NT3; Calbiochem), neurotrophin-4 (NT4; Calbiochem), ciliary neurotrophic factor (CNTF; Calbiochem), epidermal growth factor (EGF; Calbiochem), vascular endothelial growth factor (VEGF; Calbiochem)), or rhEPO (prepared same as above; 10 fM-10 nM)). Each treatment condition was run in quadruplicate or octuplicate. On the third day in culture, the media was aspirated off and replaced with fresh media and test compound. At one week in culture, the cells were fixed with 10% phosphate-buffered formalin for 15 min, then rinsed with DPBS (Sigma) and placed in blocking serum for 30 min (horse serum; 1:50 dilution in DPBS; Vector Labs). Cultures were rinsed again with DPBS and then incubated in primary antibody for 2 hr (microtubule-associated protein-2 (MAP-2) is a selective marker for dendritic processes; anti-mouse monoclonal (Chemicon); 1:1000 dilution of MAP-2 in antibody diluent (Zymed)). Negative control wells were incubated in antibody diluent alone. Background signal was determined by blank wells (cell-free) incubated with or without antibody. Cultures were rinsed again with DPBS and then placed in fluorescein for 1 hr (FITC; anti-mouse IgG; rat adsorbed; 1:50 dilution in DPBS; Vector Labs). Cultures were rinsed a final time with DPBS and then the plates were read on a Cytofluor 4000 fluorescence plate reader. Neurite outgrowth was expressed as percent change from control (vehicle; mean fluorescence±SD).
(§3) Dissociated hippocampal and cortical cell cultures were established from embryonic day 18 rat fetuses as previously described (Mattson et al., 1994). Briefly, fetuses were removed via cesarean section from pregnant moms (Sprague-Dawley) anesthetized with halothane according to the AVMA Panel on Euthanasia. Pups were decapitated and the brains were removed and placed in HEPES-buffered Hank's Balanced Salt solution (HBSS; Gibco). The hippocampi and cortices were dissected out and pooled according to tissue-type. […]

The subject of another test is rat hippocampal cultures. Kind of test: Neurite outgrowth assay (MAP2-FITC immunofluorescence), hippocampal cultures. The format is cell-based. The note with it: for overall neurite outgrowth response, hippocampal versus cortical cultures: comparison of hippocampal and cortical cultures; for dose-response profile: 10 fM-10 nM.
Text: as §1, §2, §3

Regarding GGTASCHFGPLTWVCKPQGG [EMP-6], the “neurite outgrowth (in words)” value (in test [1]; in the test with rat hippocampal cultures (hippocampal cultures)) was “promotes neurite outgrowth” each time. Moreover, the dose-response profile result (in test [1]; in the test with rat hippocampal cultures (hippocampal cultures)) was “typical bell-shaped dose-response profiles” in each case. Further, the “overall neurite outgrowth response, hippocampal versus cortical cultures” value in the test on rat hippocampal cultures was “robust neurite outgrowth activity in both hippocampal and cortical cultures”.

On to GGTYSCFGPLTWVCKPQGG [EMP-27], for which the “neurite outgrowth (in words)” value (in test [1]; with rat hippocampal cultures (hippocampal cultures)) was “promotes neurite outgrowth” in each case. For the same sequence, the dose-response profile entry in test [1] is on record as “flat response overall”; in the test on rat hippocampal cultures (hippocampal cultures), “flat response profile”. In addition, in the test with rat hippocampal cultures, the “overall neurite outgrowth response, hippocampal versus cortical cultures” value is “less impressive overall”.

With GGTYSCHFAPLTWVCKPQGG [EMP-9], in test [1], the “neurite outgrowth (in words)” value was “promotes neurite outgrowth” and the dose-response profile result is “flat response overall”. Also, the “overall neurite outgrowth response, hippocampal versus cortical cultures” value with rat hippocampal cultures is “less impressive overall”. In the test with rat hippocampal cultures (hippocampal cultures), the “neurite outgrowth (in words)” value is on record as “promotes neurite outgrowth” and the dose-response profile result is recorded as “flat response profile”.

Take GGTYSCHFGPLTWVCKPQGG [EMP-1]: in test [1], the “neurite outgrowth (in words)” value is “promotes neurite outgrowth” and the dose-response profile result is listed as “flat response overall”. For the same sequence, the “overall neurite outgrowth response, hippocampal versus cortical cultures” value with rat hippocampal cultures is “selective effects in hippocampal cultures over cortical cultures”. For the same sequence, in the test with rat hippocampal cultures (hippocampal cultures), the “neurite outgrowth (in words)” value was “promotes neurite outgrowth” and the dose-response profile result is “typical bell-shaped dose-response profiles”.

With YCHFGPLTWVC [EMP-23], in test [1], the “neurite outgrowth (in words)” value is reported as “promotes neurite outgrowth” and the dose-response profile entry was “typical bell-shaped dose-response profiles”. Moreover, in the test with rat hippocampal cultures, the “overall neurite outgrowth response, hippocampal versus cortical cultures” value is on record as “effects were greater in cortical cultures than hippocampal cells”. Further, in the test with rat hippocampal cultures (hippocampal cultures), the “neurite outgrowth (in words)” value is recorded as “promotes neurite outgrowth” and the dose-response profile result is given as “modest response”. In the test with rat hippocampal cultures (hippocampal cultures, EMP 10 fM-10 nM, one week in culture), the “neurite outgrowth at peak activity, increase over vehicle” value is reported as 43–46%.
